Laboratory results published in patent US12680128B2.

What was measured:
APOBEC3A (A3A) = APOBEC3A (A3A) (Homo sapiens, UniProt P31941); test: A3A deamination of ssDNA with homogeneously 5-modified cytosines (TA cloning assay); assay type: biochemical; conditions: 8 μM A3A, 37° C., two hours
Protocol: Single stranded DNA with homogenously modified cytosines was obtained by LATE-PCR as previously described (Schutsky et al. Nucleic Acids Res 2017). Modified triphosphates were obtained from TriLink unless otherwise noted here (mC: NEB, peC/pC: synthesized in house, purified by ion-pair chromatography, Ghanty et al. JACS 2018). 1 ng of purified single stranded DNA was incubated with 8 μM A3A at 37° C. for two hours. This 202 base pair amplicon was PCR amplified and TA cloned. Single clones were sent for Sanger Sequencing. After alignment to the parent 202mer substrate (Table 1), C to T conversions were quantified as a percentage of total Cs.
To determine more exact parameters that define the discrimination as a function of sterics at the C5 position, we synthesized or obtained dxCTP analogs, with variable (x) 5-position substituents, and used established approaches to generate long ssDNA substrates with homogeneous C modifications (36). These substrates were reacted with A3A, reamplified and analyzed for deamination by restriction digestion at a specific site.

plasmid DNA CpG sites = assay type: cell-based, E. coli
pUC19 plasmid DNA = test: pUC19 assay (in vitro transfer of SAM or CxSAM, HpaII/HhaI challenge)
[1] = system: unmethylated phage gDNA CpG sites; test: Amplicon sequencing of phage gDNA treated with M.MpeI N374K and SAM or CxSAM, then bisulfite or A3A
[2] = system: pMG81-M.MpeI plasmid CCGG sites; conditions: in vivo, plasmid recovered after induced expression
[3] = system: E. coli genomic DNA CCWGG sites; test: Nucleoside LC-MS/MS of genomic DNA after in vivo expression of Dcm variants; conditions: dam-/dcm- E. coli, gDNA

APOBEC3A (A3A), sequence (P31941 whole entry): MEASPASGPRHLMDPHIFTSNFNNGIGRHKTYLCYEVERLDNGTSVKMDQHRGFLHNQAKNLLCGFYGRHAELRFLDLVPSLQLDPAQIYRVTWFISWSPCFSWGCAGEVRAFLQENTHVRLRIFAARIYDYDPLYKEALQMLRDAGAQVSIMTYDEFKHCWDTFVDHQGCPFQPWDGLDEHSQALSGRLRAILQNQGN

Molecule: 5-propynyl-dC [5pyC]
- deamination by A3A of ssDNA with all Cs replaced by the modified base (APOBEC3A (A3A)): undetectable levels of deamination

Molecule: M.MpeI N374K: CpG M.MpeI Carboxymethyltransferase with a C-terminal His Tag, SEQ ID NO: 1 (lacks His tag) / SEQ ID NO: 2
- change of 5cxmC signal in the added presence of the CmoA plasmid (plasmid DNA CpG sites): an increase in 5cxmC signal
- in vivo plasmid carboxymethylation (5cxmC) by LC-MS/MS (plasmid DNA CpG sites): can be detected and lost
- level of 5cxmC modification across overexpression conditions (plasmid DNA CpG sites): greatest level of 5cxmC modification
- protection of pUC19 plasmid from restriction digestion (pUC19 plasmid DNA; CxSAM substrate): newly gains the ability to transfer CxSAM
- protection of pUC19 plasmid from restriction digestion (pUC19 plasmid DNA; SAM substrate): transfers SAM less efficiently than the WT enzyme
- DNA newly resistant to A3A deamination ([1]; CxSAM, A3A deamination): ~ 50%
- DNA modified as 5cxmC (cytosine calls at CpGs after bisulfite) ([1]; CxSAM, bisulfite deamination): ~ 50%
- DNA newly modified to be 5mC (cytosine calls at CpGs after bisulfite) ([1]; SAM, bisulfite deamination): ~ 60%
- HpaII and MspI digestion pattern of encoding plasmid [2]: faint ~2 kB band resistant to MspI digestion

B1: Dcm N436K: CCWGG Dcm Carboxymethyltransferase with a C-terminal His Tag, SEQ ID NO: 3 / SEQ ID NO: 4 (protein)
chain: MQENISVTDSYSTGNAAQAMLEKLLQIYDVKTLVAQLNGVGENHWSAAILKRALANDSAWHRLSEKEFAHLQTLLPKPPAHHPHYAFRFIDLFAGIGGIRRGFESIGGQCVFTSEWNKHAVRTYKANHYCDPATHHFNEDIRDITLSHKEGVSDEAAAEHIRQHIPEHDVLLAGFPCQPFSLAGVSKKNSLGRAHGFACDTQGTLFFDVVRIIDARRPAMFVLENVKNLKSHDQGKTFRIIMQTLDELGYDVADAEDNGPDDPKIIDGKHFLPQHRERIVLVGFRRDLNLKADFTLRDISECFPAQRVTLAQLLDPMVEAKYILTPVLWKYLYRYAKKHQARGNGFGYGMVYPNNPQSVTRTLSARYYKDGAEILIDRGWDMATGEKDFDDPLNQQHRPRRLTPRECARLMGFEAPGEAKFRIPVSDTQAYRQFGKSVVVPVFAAVAKLLEPKIKQAVALRQQEAQHGRRSRHHHHHH
modifications: C-terminal His tag; Dcm N436K with His tag
- CCWGG sites carboxymethylated (5cxmC relative to total CCWGGs) [3]: > 1.5%
- formation of 5cxmC in the native E. coli genome [3]: could catalyze the formation of 5cxmC
- methylation of cytosine (detection of 5mC) [3]: could methylate cytosine

B2: WT Dcm: E. coli's naturally occurring DNA Cytosine Methyltransferase (Dcm) (protein, UniProt P0AED9 1-472, looked up)
DNA-cytosine methyltransferase: MQENISVTDSYSTGNAAQAMLEKLLQIYDVKTLVAQLNGVGENHWSAAILKRALANDSAWHRLSEKEFAHLQTLLPKPPAHHPHYAFRFIDLFAGIGGIRRGFESIGGQCVFTSEWNKHAVRTYKANHYCDPATHHFNEDIRDITLSHKEGVSDEAAAEHIRQHIPEHDVLLAGFPCQPFSLAGVSKKNSLGRAHGFACDTQGTLFFDVVRIIDARRPAMFVLENVKNLKSHDQGKTFRIIMQTLDELGYDVADAEDNGPDDPKIIDGKHFLPQHRERIVLVGFRRDLNLKADFTLRDISECFPAQRVTLAQLLDPMVEAKYILTPVLWKYLYRYAKKHQARGNGFGYGMVYPNNPQSVTRTLSARYYKDGAEILIDRGWDMATGEKDFDDPLNQQHRPRRLTPRECARLMGFEAPGEAKFRIPVSDTQAYRQFGNSVVVPVFAAVAKLLEPKIKQAVALRQQEAQHGRRSR
- formation of 5cxmC in the native E. coli genome [3]: not
- methylation of cytosine (detection of 5mC) [3]: could methylate cytosine
